Laboratory results published in patent US8247211B2, “Glycopeptide antibiotics” (American Cyanamid Company, priority 2001, dated 2012).
In brackets after ≈: the same amount, converted by molar mass.

Assays:
Assay in all cases: In vitro antibacterial evaluation: minimum inhibitory concentration (MIC), broth dilution method
Assay type in all cases: cell-based
Enterococcus sp. = conditions: 18 hours at 35° C.
How it was run: (§1)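 NCCLS M7-A2 broth dilution; Muller-Hinton II […]; 5×10^5 CFU/mL; 64-0.06 μg/mL. MIC = lowest concentration with no growth.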

Escherichia coli = Escherichia coli (GC 4560); 18 hours at 35° C.
How it was run: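 Following NCCLS approved standard M7-A2, compounds are serially diluted from 64 to 0.06 μg/mL in Muller-Hinton II […] and inoculated at 5×10^5 CFU/mL; the MIC is the minimum concentration at which growth is inhibited.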

Staphylococcus sp. = conditions: for MIC Staphylococcus aureus (ATCC 29213): strain ATCC 29213; for MIC Staphylococcus aureus (GC 1131): strain GC 1131; for MIC Staphylococcus aureus (GC 3051): strain GC 3051; for MIC Staphylococcus aureus (GC 3053): strain GC 3053; for MIC Staphylococcus aureus (GC 4541): strain GC 4541; for MIC Staphylococcus aureus (GC 4542): strain GC 4542; for MIC Staphylococcus aureus-SMITH (GC 4543): strain GC 4543; for MIC Staphylococcus aureus (GC 4544): strain GC 4544; for MIC Staphylococcus aureus (GC 4545): strain GC 4545; for MIC Staphylococcus haemolyticus (GC 4546): strain GC 4546; for MIC Coagulase Negative Staphylococcus (GC 4547): strain GC 4547; for MIC Coagulase Negative Staphylococcus (GC 4548): strain GC 4548; for MIC Coagulase Negative Staphylococcus (GC 4549): strain GC 4549; for MIC Coagulase Negative Staphylococcus (GC 4551): strain GC 4551
How it was run: as §1

Streptococcus sp. = conditions: 18 hours at 35° C.
How it was run: as §1

[1] = Enterococcus faecalis (ATCC 29212)
[2] = Enterococcus faecalis (GC 2242)
[3] = Enterococcus faecalis (GC 2691)
[4] = Enterococcus faecalis (GC 3059)
[5] = Enterococcus faecalis (GC 4552)
[6] = Enterococcus faecalis (GC 4553)
[7] = Enterococcus faecalis (GC 4554)
[8] = Enterococcus faecalis (GC 6189)
[9] = broth dilution, inoculum 5×10^5 CFU/mL
[10] = Streptococcus agalactiae (GC 4564)
[11] = Streptococcus pneumoniae (ATCC 6301)
[12] = Streptococcus pneumoniae (GC 1894)
[13] = Streptococcus pneumoniae (GC 4565)
[14] = Streptococcus pyogenes (GC 4563)

## CC(C)=CCN1CC(C(O)C2NC(=O)C(C(O)C3CNC(=N)N3)NC(=O)C(Cc3ccc(OC4OC(CO)C(OC5OC6COC7(OC6C(O)C5O)C5CC6CC(C5)CC7C6)C(O)C4O)cc3)NC(=O)C(C(C)c3ccccc3)NC(=O)CNC(=O)C(CO)NC2=O)N(C2OC(CO)C(O)C(O)C2O)C1=N (stereo not drawn) [Example 225, Cyclo[glycyl-β-methylphenylalanyl-O-[4-O-[4,6-O-(2-adamantylidene)hexopyranosyl]hexopyranosyl]tyrosyl-3-(2-iminoimidazolidin-4-yl)seryl-3,3-hexopyranosyl-2-imino-1-(3-methylbut-2-en-1-iminoimidazolidin-4-yl]serylseryl]]
Enterococcus sp.; Enterococcus avium (GC 4558)
  MIC Enterococcus avium (GC 4558): 4 µg/mL (≈ 2.67 µM)
Enterococcus sp.; [1]
  MIC Enterococcus faecalis (ATCC 29212): 8 µg/mL (≈ 5.35 µM)
Enterococcus sp.; [2]
  MIC Enterococcus faecalis (GC 2242): 8 µg/mL (≈ 5.35 µM)
Enterococcus sp.; [3]
  MIC Enterococcus faecalis (GC 2691): 16 µg/mL (≈ 10.7 µM)
Enterococcus sp.; [4]
  MIC Enterococcus faecalis (GC 3059): 16 µg/mL (≈ 10.7 µM)
Enterococcus sp.; [5]
  MIC Enterococcus faecalis (GC 4552): 8 µg/mL (≈ 5.35 µM)
Enterococcus sp.; [6]
  MIC Enterococcus faecalis (GC 4553): 4 µg/mL (≈ 2.67 µM)
Enterococcus sp.; [7]
  MIC Enterococcus faecalis (GC 4554): 16 µg/mL (≈ 10.7 µM)
Enterococcus sp.; [8]
  MIC Enterococcus faecalis (GC 6189): 16 µg/mL (≈ 10.7 µM)
Enterococcus sp.; Enterococcus faecium (GC 2243)
  MIC Enterococcus faecium (GC 2243): 4 µg/mL (≈ 2.67 µM)
Enterococcus sp.; Enterococcus faecium (GC 4556)
  MIC Enterococcus faecium (GC 4556): 8 µg/mL (≈ 5.35 µM)
Enterococcus sp.; Enterococcus faecium (GC 4557)
  MIC Enterococcus faecium (GC 4557): 1 µg/mL (≈ 0.669 µM)
Enterococcus sp.; [9]
  MIC Enterococcus avium (GC 4558): 4 µg/mL (≈ 2.67 µM)
  MIC Enterococcus faecalis (ATCC 29212): 8 µg/mL (≈ 5.35 µM)
  MIC Enterococcus faecalis (GC 2242): 8 µg/mL (≈ 5.35 µM)
  MIC Enterococcus faecalis (GC 2691): 16 µg/mL (≈ 10.7 µM)
  MIC Enterococcus faecalis (GC 3059): 16 µg/mL (≈ 10.7 µM)
  MIC Enterococcus faecalis (GC 4552): 8 µg/mL (≈ 5.35 µM)
  MIC Enterococcus faecalis (GC 4553): 4 µg/mL (≈ 2.67 µM)
  MIC Enterococcus faecalis (GC 4554): 16 µg/mL (≈ 10.7 µM)
  MIC Enterococcus faecalis (GC 6189): 16 µg/mL (≈ 10.7 µM)
  MIC Enterococcus faecium (GC 2243): 4 µg/mL (≈ 2.67 µM)
  MIC Enterococcus faecium (GC 4556): 8 µg/mL (≈ 5.35 µM)
  MIC Enterococcus faecium (GC 4557): 1 µg/mL (≈ 0.669 µM)
Escherichia coli
  MIC Escherichia coli (GC 4560): 4 µg/mL (≈ 2.67 µM)
Staphylococcus sp.
  MIC Staphylococcus aureus (ATCC 29213): 4 µg/mL (≈ 2.67 µM)
  MIC Staphylococcus aureus (GC 1131): 8 µg/mL (≈ 5.35 µM)
  MIC Staphylococcus aureus (GC 3051): 4 µg/mL (≈ 2.67 µM)
  MIC Staphylococcus aureus (GC 3053): 8 µg/mL (≈ 5.35 µM)
  MIC Staphylococcus aureus (GC 4541): 4 µg/mL (≈ 2.67 µM)
  MIC Staphylococcus aureus (GC 4542): 8 µg/mL (≈ 5.35 µM)
  MIC Staphylococcus aureus-SMITH (GC 4543): 4 µg/mL (≈ 2.67 µM)
  MIC Staphylococcus aureus (GC 4544): 8 µg/mL (≈ 5.35 µM)
  MIC Staphylococcus aureus (GC 4545): 4 µg/mL (≈ 2.67 µM)
  MIC Staphylococcus haemolyticus (GC 4546): 4 µg/mL (≈ 2.67 µM)
  MIC Coagulase Negative Staphylococcus (GC 4547): 4 µg/mL (≈ 2.67 µM)
  MIC Coagulase Negative Staphylococcus (GC 4548): 2 µg/mL (≈ 1.34 µM)
  MIC Coagulase Negative Staphylococcus (GC 4549): 2 µg/mL (≈ 1.34 µM)
  MIC Coagulase Negative Staphylococcus (GC 4551): 4 µg/mL (≈ 2.67 µM)
Streptococcus sp.; [10]
  MIC Streptococcus agalactiae (GC 4564): 0.5 µg/mL (≈ 0.334 µM)
Streptococcus sp.; [11]
  MIC Streptococcus pneumoniae (ATCC 6301): 0.5 µg/mL (≈ 0.334 µM)
Streptococcus sp.; [12]
  MIC Streptococcus pneumoniae (GC 1894): <0.12 µg/mL
Streptococcus sp.; [13]
  MIC Streptococcus pneumoniae (GC 4565): 1 µg/mL (≈ 0.669 µM)
Streptococcus sp.; [14]
  MIC Streptococcus pyogenes (GC 4563): 0.5 µg/mL (≈ 0.334 µM)
Streptococcus sp.; [9]
  MIC Streptococcus agalactiae (GC 4564): 0.5 µg/mL (≈ 0.334 µM)
  MIC Streptococcus pneumoniae (ATCC 6301): 0.5 µg/mL (≈ 0.334 µM)
  MIC Streptococcus pneumoniae (GC 1894): <0.12 µg/mL
  MIC Streptococcus pneumoniae (GC 4565): 1 µg/mL (≈ 0.669 µM)
  MIC Streptococcus pyogenes (GC 4563): 0.5 µg/mL (≈ 0.334 µM)

## CC(c1ccccc1)C1NC(=O)CNC(=O)C(CO)NC(=O)C(C(O)C2CN(Cc3ccc(C(F)(F)F)cc3)C(=N)N2C2OC(CO)C(O)C(O)C2O)NC(=O)C(C(O)C2CNC(=N)N2)NC(=O)C(Cc2ccc(OC3OC(CO)C(OC4OC5COC6(OC5C(O)C4O)C4CC5CC(C4)CC6C5)C(O)C3O)cc2)NC1=O (stereo not drawn) [Example 226]
Enterococcus sp.; Enterococcus avium (GC 4558)
  MIC Enterococcus avium (GC 4558): 8 µg/mL (≈ 5.05 µM)
Enterococcus sp.; [1]
  MIC Enterococcus faecalis (ATCC 29212): 32 µg/mL (≈ 20.2 µM)
Enterococcus sp.; [2]
  MIC Enterococcus faecalis (GC 2242): 16 µg/mL (≈ 10.1 µM)
Enterococcus sp.; [3]
  MIC Enterococcus faecalis (GC 2691): 32 µg/mL (≈ 20.2 µM)
Enterococcus sp.; [4]
  MIC Enterococcus faecalis (GC 3059): 32 µg/mL (≈ 20.2 µM)
Enterococcus sp.; [5]
  MIC Enterococcus faecalis (GC 4552): 32 µg/mL (≈ 20.2 µM)
Enterococcus sp.; [6]
  MIC Enterococcus faecalis (GC 4553): 16 µg/mL (≈ 10.1 µM)
Enterococcus sp.; [7]
  MIC Enterococcus faecalis (GC 4554): 32 µg/mL (≈ 20.2 µM)
Enterococcus sp.; [8]
  MIC Enterococcus faecalis (GC 6189): 32 µg/mL (≈ 20.2 µM)
Enterococcus sp.; Enterococcus faecium (GC 2243)
  MIC Enterococcus faecium (GC 2243): 16 µg/mL (≈ 10.1 µM)
Enterococcus sp.; Enterococcus faecium (GC 4556)
  MIC Enterococcus faecium (GC 4556): 32 µg/mL (≈ 20.2 µM)
Enterococcus sp.; Enterococcus faecium (GC 4557)
  MIC Enterococcus faecium (GC 4557): 2 µg/mL (≈ 1.26 µM)
Enterococcus sp.; [9]
  MIC Enterococcus avium (GC 4558): 8 µg/mL (≈ 5.05 µM)
  MIC Enterococcus faecalis (ATCC 29212): 32 µg/mL (≈ 20.2 µM)
  MIC Enterococcus faecalis (GC 2242): 16 µg/mL (≈ 10.1 µM)
  MIC Enterococcus faecalis (GC 2691): 32 µg/mL (≈ 20.2 µM)
  MIC Enterococcus faecalis (GC 3059): 32 µg/mL (≈ 20.2 µM)
  MIC Enterococcus faecalis (GC 4552): 32 µg/mL (≈ 20.2 µM)
  MIC Enterococcus faecalis (GC 4553): 16 µg/mL (≈ 10.1 µM)
  MIC Enterococcus faecalis (GC 4554): 32 µg/mL (≈ 20.2 µM)
  MIC Enterococcus faecalis (GC 6189): 32 µg/mL (≈ 20.2 µM)
  MIC Enterococcus faecium (GC 2243): 16 µg/mL (≈ 10.1 µM)
  MIC Enterococcus faecium (GC 4556): 32 µg/mL (≈ 20.2 µM)
  MIC Enterococcus faecium (GC 4557): 2 µg/mL (≈ 1.26 µM)
Escherichia coli
  MIC Escherichia coli (GC 4560): 4 µg/mL (≈ 2.52 µM)
Staphylococcus sp.
  MIC Staphylococcus aureus (ATCC 29213): 16 µg/mL (≈ 10.1 µM)
  MIC Staphylococcus aureus (GC 1131): 16 µg/mL (≈ 10.1 µM)
  MIC Staphylococcus aureus (GC 3051): 16 µg/mL (≈ 10.1 µM)
  MIC Staphylococcus aureus (GC 3053): 16 µg/mL (≈ 10.1 µM)
  MIC Staphylococcus aureus (GC 4541): 8 µg/mL (≈ 5.05 µM)
  MIC Staphylococcus aureus (GC 4542): 16 µg/mL (≈ 10.1 µM)
  MIC Staphylococcus aureus-SMITH (GC 4543): 8 µg/mL (≈ 5.05 µM)
  MIC Staphylococcus aureus (GC 4544): 16 µg/mL (≈ 10.1 µM)
  MIC Staphylococcus aureus (GC 4545): 16 µg/mL (≈ 10.1 µM)
  MIC Staphylococcus haemolyticus (GC 4546): 8 µg/mL (≈ 5.05 µM)
  MIC Coagulase Negative Staphylococcus (GC 4547): 8 µg/mL (≈ 5.05 µM)
  MIC Coagulase Negative Staphylococcus (GC 4548): 8 µg/mL (≈ 5.05 µM)
  MIC Coagulase Negative Staphylococcus (GC 4549): 16 µg/mL (≈ 10.1 µM)
  MIC Coagulase Negative Staphylococcus (GC 4551): 8 µg/mL (≈ 5.05 µM)
Staphylococcus sp.; strain GC 6257
  MIC Coagulase Negative Staphylococcus (GC 6257): 2 µg/mL (≈ 1.26 µM)
Streptococcus sp.; [10]
  MIC Streptococcus agalactiae (GC 4564): 4 µg/mL (≈ 2.52 µM)
Streptococcus sp.; [11]
  MIC Streptococcus pneumoniae (ATCC 6301): 4 µg/mL (≈ 2.52 µM)
Streptococcus sp.; [12]
  MIC Streptococcus pneumoniae (GC 1894): 0.5 µg/mL (≈ 0.315 µM)
Streptococcus sp.; [13]
  MIC Streptococcus pneumoniae (GC 4565): 4 µg/mL (≈ 2.52 µM)
Streptococcus sp.; [14]
  MIC Streptococcus pyogenes (GC 4563): 2 µg/mL (≈ 1.26 µM)
Streptococcus sp.; [9]
  MIC Streptococcus agalactiae (GC 4564): 4 µg/mL (≈ 2.52 µM)
  MIC Streptococcus pneumoniae (ATCC 6301): 4 µg/mL (≈ 2.52 µM)
  MIC Streptococcus pneumoniae (GC 1894): 0.5 µg/mL (≈ 0.315 µM)
  MIC Streptococcus pneumoniae (GC 4565): 4 µg/mL (≈ 2.52 µM)
  MIC Streptococcus pyogenes (GC 4563): 2 µg/mL (≈ 1.26 µM)
